In BindingDB's records for patent US20250195508 (University of Central Florida Research Foundation, 2025):

The molecules below were run against Ephrin type-A receptor 2 (Homo sapiens, UniProt P29317) (assay: In Vitro Biochemical Kinase Assay).
Source text: In vitro biochemical kinase assays were done using recombinant human EPHA2. compounds were subjected to in vitro biochemical kinase assays done using recombinant human ephrin type-A receptor 2 (EPHA2) (expressed in insect cells) in a Z′-LYTE FRET-based kinase assay.

Ephrin type-A receptor 2, sequence (P29317 whole entry): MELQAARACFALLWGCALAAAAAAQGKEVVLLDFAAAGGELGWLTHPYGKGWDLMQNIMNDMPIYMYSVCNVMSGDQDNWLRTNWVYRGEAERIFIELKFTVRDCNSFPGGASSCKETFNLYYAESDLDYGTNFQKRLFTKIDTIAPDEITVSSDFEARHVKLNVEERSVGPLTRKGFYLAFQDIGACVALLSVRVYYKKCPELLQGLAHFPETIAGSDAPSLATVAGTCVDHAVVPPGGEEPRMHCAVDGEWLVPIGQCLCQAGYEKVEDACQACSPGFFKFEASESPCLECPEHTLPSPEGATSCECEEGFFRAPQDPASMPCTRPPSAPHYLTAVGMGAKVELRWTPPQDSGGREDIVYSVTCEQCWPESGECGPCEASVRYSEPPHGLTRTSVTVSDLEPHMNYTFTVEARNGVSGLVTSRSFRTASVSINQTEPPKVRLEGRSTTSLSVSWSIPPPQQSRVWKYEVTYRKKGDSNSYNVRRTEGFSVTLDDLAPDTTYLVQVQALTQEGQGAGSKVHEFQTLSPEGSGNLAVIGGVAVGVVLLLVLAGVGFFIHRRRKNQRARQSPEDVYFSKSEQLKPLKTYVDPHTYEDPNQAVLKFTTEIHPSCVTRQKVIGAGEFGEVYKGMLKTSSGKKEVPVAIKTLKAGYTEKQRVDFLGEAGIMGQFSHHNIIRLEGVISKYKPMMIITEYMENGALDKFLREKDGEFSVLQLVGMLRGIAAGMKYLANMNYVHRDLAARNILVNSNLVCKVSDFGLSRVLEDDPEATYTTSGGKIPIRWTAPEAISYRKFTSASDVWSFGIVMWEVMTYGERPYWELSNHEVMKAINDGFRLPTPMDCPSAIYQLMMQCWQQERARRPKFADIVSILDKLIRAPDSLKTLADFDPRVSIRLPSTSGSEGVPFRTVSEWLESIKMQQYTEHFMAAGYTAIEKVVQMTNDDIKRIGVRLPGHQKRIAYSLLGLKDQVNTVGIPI

IC50, > 10 µM:
CCN1CCN(Cc2ccc(NC(=O)c3cc(NC(=O)c4cncc(-c5cccs5)c4)cc(OC)c3)cc2C(F)(F)F)CC1 [MLS000911581]
CCN1CCN(Cc2ccc(NC(=O)c3cncc(NC(=O)c4cncc(-c5cccs5)c4)c3)cc2C(F)(F)F)CC1 [US20250195508, Name TL5-139]
CCN1CCN(Cc2ccc(NC(=O)c3ccnc(NC(=O)c4cncc(-c5cccs5)c4)c3)cc2C(F)(F)F)CC1 [US20250195508, Name TL5-145]
